Measurements taken from PubChem BioAssay AID1919014 (Molecular Pharmacology Branch, DTP, NCI, 2023).
pIC50: −log10 of the molar value. “And” between values parts separate entries of the source, which are not always exact repeats. Identical values can stand only once.

Tested on: NCI-H1341 complex spheroids, percent test/control
Assay: Anticancer human tumor NCI-H1341 cell line growth inhibition [AhR];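 also: spheroids exposed to agents for seven days before readout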
Conditions: for viability, T/C: stronger effect = lower value
Text: Multicellular complex tumor spheroid response to aryl hydrocarbon receptor antagonists in combination with a variety of drugs and investigational agents in selected tumor cell lines
The current study was undertaken to assess response to aryl hydrocarbon receptor antagonists in combination with standard-of-care drugs and investigational agents in solid tumor complex spheroid models. Complex spheroids include a stromal component modeled by human endothelial cells (HUVEC) and fibroblasts modeled by human mesenchymal stem cells (MSCs). The concentration ranges selected for each drug and investigational agent were based upon clinically achievable concentrations if the clinical Cmax of the agent was known.
Compounds. The drugs and investigational agents: BAY 2416964 (NSC825713), GNF351 (NSC835774), CH-223191 (NSC835775), CPI-455 (NSC825282), aza-TdCyd (NSC777586), decitabine (NSC127716), belinostat (NSC758774), entinostat (NSC756642), pevonedistat (NSC761192), tazemetostat (NSC777109), talazoparib (NSC765396), olaparib (NSC753686), selinexor (NSC780203), nedisertib (M3814, NSC802822), bortezomib (NSC756655), venetoclax (NSC766270), doxorubicin (NSC123127), elimusertib (BAY189344, NSC800525), ceralasertib (AZD6738, NSC777638), TAK-243 (NSC785004), alisertib (NSC759677), etoposide (NSC141540), topotecan (NSC609699), eribulin (NSC707389), gemcitabine (NSC613327), carboplatin (NSC241240), cisplatin (NSC119875), and SN-38 (NSC673596) were obtained from the National Cancer Institute (NCI) Developmental Therapeutics Program Chemical Repository (32). The FDA-approved anticancer drug set is available from the Developmental Therapeutics Program at https://dtp.cancer.gov/organization/dscb/obtaining/available plates.htm. […] The stock solutions were prepared in dimethyl sulfoxide (DMSO, Sigma-Aldrich, St. Louis, MO, cat. D2650), except for the platinum compounds which were prepared in saline (Quality Biological, Gaithersburg, MD, cat. 114-055-101), at 800-fold the tested concentration and stored at -70 degrees C prior to their use. All drugs and investigational agents were tested over a range starting from a high concentration at or near the clinical Cmax and decreasing in half-log increments. If the clinical Cmax for an agent had not been determined, the highest concentration tested was 10 microM (Table 1).
Cell Culture. All cells were maintained in an incubator at 37 degrees C and 5% CO2 with 95% humidity. The PDC lines were cultured according to standard operating procedures established by the NCI PDMR (https://pdmr.cancer.gov). Briefly, all PDCs were thawed and cultured in Matrigel-coated flasks prepared with a working solution of 1X Ham's F-12 nutrient mix, without supplementation (Invitrogen, Waltham, MA, cat. 11765054), 100 U/mL penicillin-streptomycin (Invitrogen, cat. 15140122), and 2.5% Matrigel (Corning Inc., Corning, NY, cat. 354248) for the first three passages. All PDCs were cultured in complete DMEM/F-12 media containing advanced DMEM/F-12 (Invitrogen, cat. 12634028), 4.9% defined fetal bovine serum, heat inactivated (HyClone Laboratories Inc., Logan, UT, cat. SH30070.03HI), 389 ng/mL hydrocortisone (Sigma-Aldrich, cat. H4001), 9.7 ng/mL human EGF recombinant protein (Invitrogen, cat. PHG0313), 23.4 microg/mL adenine (Sigma-Aldrich, cat. A2786), 97.3 U/mL penicillin-streptomycin (Invitrogen, cat. 15140122), 1.9 mM L-glutamine (Invitrogen, cat. 25030081), and 9.7 microM Y-27632 dihydrochloride (Tocris Bioscience, Bristol, United Kingdom, cat. 1254). The PDCs were cultured in complete DMEM/F12 media without 10 microM Y-27632 dihydrochloride for at least two passages prior to the screen. The established cell lines NCI-H1341 and […] were cultured in DMEM/F-12, HEPES (Invitrogen, cat. 11330032), 5% defined fetal bovine serum (HyClone Laboratories Inc., cat. SH30070.03), ITS premix universal culture supplement [insulin (5 microg/mL), transferrin (5 microg/mL), and selenious acid (5 ng/mL)] […]

SMILES | pIC50 (curve of compound) | viability, T/C (compound 0.0316 µM) | viability, T/C (compound 0.1 µM) | viability, T/C (compound 0.316 µM) | viability, T/C (compound 1 µM) | viability, T/C (compound 3.16 µM) | viability, T/C (compound 10 µM) | other results
CC(C)CC(NC(=O)C(Cc1ccccc1)NC(=O)c1cnccn1)B(O)O (stereo unspecified) | 8.30 and 8.34 |  |  |  |  |  |  | viability, T/C (compound 0.000949 µM): 97% and 95% and 100%; viability, T/C (compound 0.003 µM): 87.7% and 87% and 79%; viability, T/C (compound 0.00949 µM): 2.76% and 3.47% and 0.86%; viability, T/C (compound 0.03 µM): 0.19% and 0.35% and 0.14%; viability, T/C (compound 0.0949 µM): 0.14% and 0.25% and 0.11%; viability, T/C (compound 0.3 µM): 0.17% and 0.31% and 0.15%
CC(C)c1c(-c2ccccc2)nc2c(C#N)c[nH]n2c1=O | < 5.00 | 105% (2×) and 130% | 93.4% and 104% and 101% | 90% and 98.5% and 101% | 88.2% and 103% and 97.3% | 100% and 82.5% and 90.3% | 78% and 92% and 91.9% | 
CC(CO)NC(=O)c1cc(-c2ccc(Cl)cc2)nn(-c2cnn(C)c2)c1=O (stereo unspecified) |  |  |  |  |  |  | 78.7% [middle of 19 runs] | pIC50 (compound alone, run of 07/12/2022): < 5.00
CC[C@@]1(O)C(=O)OCc2c1cc1n(c2=O)Cc2cc3c(CN(C)C)c(O)ccc3nc2-1 | 7.52 and 7.25 and 7.15 | 48.4% and 65.8% and 57.3% | 35.3% and 35% and 46.5% |  |  |  |  | viability, T/C (compound 0.000316 µM): 89.2% and 92.2% and 98.9%; viability, T/C (compound 0.001 µM): 94.4% and 86.7% and 107%; viability, T/C (compound 0.00316 µM): 89.6% and 91.8% and 112%; viability, T/C (compound 0.01 µM): 80.9% and 79.7% and 87.2%
CCc1c2c(nc3ccc(O)cc13)-c1cc3c(c(=O)n1C2)COC(=O)[C@]3(O)CC | 7.98 and 7.71 and 7.91 |  |  |  |  |  |  | viability, T/C (compound 0.000949 µM): 89.8% and 92.6% and 89%; viability, T/C (compound 0.003 µM): 77% and 86.1% and 83.9%; viability, T/C (compound 0.00949 µM): 46.3% and 51.3% and 49.4%; viability, T/C (compound 0.03 µM): 34.4% and 45.9% and 36.6%; viability, T/C (compound 0.0949 µM): 27.4% and 34.4% and 28.5%; viability, T/C (compound 0.3 µM): 13.3% and 18.2% and 17%
COc1cc(C2c3cc4c(cc3C(OC3OC5COC(C)OC5C(O)C3O)C3COC(=O)C23)OCO4)cc(OC)c1O (stereo unspecified) |  | 98.7% and 93.7% and 88.8% | 86.3% and 90.8% and 80.8% | 75.5% and 77.2% and 57% | 44.2% and 51.9% and 53.8% | 35.1% and 45.4% and 52.8% | 35.9% and 30.7% and 53.1% | 
COc1cc(Nc2ncc3c(n2)-c2ccc(Cl)cc2C(c2c(F)cccc2OC)=NC3)ccc1C(=O)O | > 7.50 | 33% and 48.4% and 43.1% | 43.8% and 51.7% and 43% | 37% and 43.2% and 50.4% | 29.6% and 37.5% and 36.1% | 27.7% and 28% and 29.3% | 22.2% and 26.8% and 26.4% | 

Now from value to compound, other results behind:

pIC50 (curve of compound) | SMILES | viability, T/C (compound 0.0316 µM) | viability, T/C (compound 0.1 µM) | viability, T/C (compound 0.316 µM) | viability, T/C (compound 1 µM) | viability, T/C (compound 3.16 µM) | viability, T/C (compound 10 µM) | other results
< 5.00 and 5.68 and 5.66 | CC1(C)CCC(CN2CCN(c3ccc(C(=O)NS(=O)(=O)c4ccc(NCC5CCOCC5)c([N+](=O)[O-])c4)c(Oc4cnc5[nH]ccc5c4)c3)CC2)=C(c2ccc(Cl)cc2)C1 | 113% and 85.5% and 86.1% | 97% and 69.1% and 76.1% | 95.7% and 108% and 96.4% | 101% and 68% and 72.1% | 92.2% and 38.2% and 39.1% | 85.7% and 14% and 10.1% | 
7.36 and 7.10 and 7.42 | CC1COCCN1c1cc(-c2ccnn2C)c2ccnc(-c3ccn[nH]3)c2n1 (stereo unspecified) | 60.1% and 77.4% and 53.4% | 28.1% and 43% and 29.3% | 23.1% and 38.5% and 23.2% | 16.5% and 27.6% and 19.2% |  |  | viability, T/C (compound 0.00316 µM): 107% and 90.1% and 110%; viability, T/C (compound 0.01 µM): 115% and 99.5% and 98.4%
5.36 and 5.59 and 5.72 | CC1COCCN1c1cc(C2(S(C)(=N)=O)CC2)nc(-c2ccnc3[nH]ccc23)n1 (stereo unspecified) | 78.3% and 98.6% and 99.5% | 102% and 101% and 88.4% | 83.1% and 114% and 76.1% | 96.3% and 75.8% and 66.2% | 60.8% and 47.8% and 37.9% | 23.1% and 30.4% and 20.2% | 
< 5.52 | CCN(c1cc(-c2ccc(CN3CCOCC3)cc2)cc(C(=O)NCc2c(C)cc(C)[nH]c2=O)c1C)C1CCOCC1 |  |  |  |  |  |  | viability, T/C (compound 0.00949 µM): 94.3% and 103% and 94.7%; viability, T/C (compound 0.03 µM): 84.3% and 90.7% and 97%; viability, T/C (compound 0.0949 µM): 101% and 87.8% and 83%; viability, T/C (compound 0.3 µM): 85% and 87.6% and 82.2%; viability, T/C (compound 0.949 µM): 79.2% and 119% and 90.2%; viability, T/C (compound 3 µM): 90.2% and 89.3% and 73.7%
